Starred links: 1 amine or outer side, 2 acyl side, 3 side chain; linkers in the order of their positions; H or OH if unused. Positions of bridges follow the written chain, without caps; N, C: chain ends. Non-standard residues stand in square brackets, D forms with d. Residues, ends and D or L forms follow the SMILES beside them. X53 = O=C([C@H](CCNC[C@H](O)[C@@H](O)[C@H](O)C(O)CO[C@H]1O[C@H](CO)[C@H](O)[C@H](O)[C@H]1O)N[*:1])[*:2]; X39 = O=C([C@H](CNC[C@H](O)[C@@H](O)[C@H](O)C(O)CO[C@H]1O[C@H](CO)[C@H](O)[C@H](O)[C@H]1O)N[*:1])[*:2]; X54 = O=C([C@H](CCNC[C@@H](O)C(O)[C@H](O[C@@H]1OC(CO)[C@@H](O)C(O)C1O)C(O)CO)N[*:1])[*:2]; X42 = O=C([C@H](CNC[C@@H](O)C(O)[C@H](O[C@@H]1OC(CO)[C@@H](O)C(O)C1O)C(O)CO)N[*:1])[*:2]; X66 = C[C@H](O)[C@H](O)[C@@H](O)[C@@H](O)CNCC[C@H](N[*:1])C(=O)[*:2]; X52 = C[C@H](O)[C@H](O)[C@@H](O)[C@@H](O)CNC[C@H](N[*:1])C(=O)[*:2]; Trp(1-CH2COOH) = N[C@@H](Cc1cn(CC(=O)O)c2ccccc12)C(=O)O; X37 = O=C([C@H](CNCC[C@@H](O)C(O)CO)N[*:1])[*:2]; X38 = O=C([C@H](CCNCC[C@H](O)C(O)CO)N[*:1])[*:2]; Hyp = O=C(O)[C@@H]1C[C@@H](O)CN1; NMeNle = CCCC[C@H](NC)C(=O)O; NMeA = CN[C@@H](C)C(=O)O; Dab = NCC[C@H](N)C(=O)O
Target: T1, PD-1/PD-L1 (Homo sapiens, UniProt Q9NZQ7)
T1 construct: TVMV protease site (linker) (C); made in house; host or cells: HEK293T cells
Assay: PD-1/PD-L1 Homogenous Time-Resolved Fluorescence (HTRF) binding assay
Conditions: PD-L1-His 10 nM, PD-1-Ig 20 nM
Procedure, shortened: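 Compounds preincubated 15 min with PD-L1-His (residues 18-239, 10 nM) in dPBS with 0.1% BSA, 0.05% Tween-20, then PD-1-Ig (residues 25-167, 20 nM) for 15 min. Eu-cryptate anti-Ig (1 nM) and APC anti-His (20 nM) equilibrated 30 min; 665/620 nm ratio read, IC50 derived.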

T1 sequence (Q9NZQ7 18-239): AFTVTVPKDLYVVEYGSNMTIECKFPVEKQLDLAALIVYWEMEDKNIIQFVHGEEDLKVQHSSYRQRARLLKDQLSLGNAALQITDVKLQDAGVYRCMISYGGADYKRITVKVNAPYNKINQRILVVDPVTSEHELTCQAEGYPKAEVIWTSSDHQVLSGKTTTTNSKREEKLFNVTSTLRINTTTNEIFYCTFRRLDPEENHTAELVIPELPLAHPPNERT

| Compound | IC50 [nM] |
| --- | --- |
| CCCC[C@H]1C(=O)N(C)[C@@H](CCCC)C(=O)N[C@@H](CC(C)C)C(=O)N[C@H](C(=O)NCC(N)=O)CSCC(=O)N[C@@H](Cc2ccc(O)cc2)C(=O)N(C)[C@@H](C)C(=O)N[C@@H](CC(N)=O)C(=O)N2CCC[C@H]2C(=O)N[C@@H](CNCC[C@@H](O)C(O)CO)C(=O)N[C@@H](CC(C)C)C(=O)N2C[C@H](O)C[C@H]2C(=O)N[C@@H](Cc2c[nH]c3ccccc23)C(=O)N[C@@H](CCNCC[C@H](O)C(O)CO)C(=O)N[C@@H](Cc2cn(CC(=O)O)c3ccccc23)C(=O)N1C (stereo partly drawn) [Example 2038] ({CH2CO}-Y[NMeA]NP[X37]L[Hyp]W[X38][Trp(1-CH2COOH)][NMeNle][NMeNle]LCG-NH2; thioether N-14) | 6.7 |
| CCCC[C@H]1C(=O)N(C)[C@@H](CCCC)C(=O)N[C@@H](CC(C)C)C(=O)N[C@H](C(=O)NCC(N)=O)CSCC(=O)N[C@@H](Cc2ccc(O)cc2)C(=O)N(C)[C@@H](C)C(=O)N[C@@H](CC(N)=O)C(=O)N2CCC[C@H]2C(=O)N[C@@H](CNC[C@@H](O)C(O)[C@H](O[C@@H]2OC(CO)[C@@H](O)C(O)C2O)C(O)CO)C(=O)N[C@@H](CC(C)C)C(=O)N2C[C@H](O)C[C@H]2C(=O)N[C@@H](Cc2c[nH]c3ccccc23)C(=O)N[C@@H](CCN)C(=O)N[C@@H](Cc2cn(CC(=O)O)c3ccccc23)C(=O)N1C (stereo partly drawn) [Example 2039] ({CH2CO}-Y[NMeA]NP[X42]L[Hyp]W[Dab][Trp(1-CH2COOH)][NMeNle][NMeNle]LCG-NH2; thioether N-14) | 5.2 |
| CCCC[C@H]1C(=O)N(C)[C@@H](CCCC)C(=O)N[C@@H](CC(C)C)C(=O)N[C@H](C(=O)NCC(N)=O)CSCC(=O)N[C@@H](Cc2ccc(O)cc2)C(=O)N(C)[C@@H](C)C(=O)N[C@@H](CC(N)=O)C(=O)N2CCC[C@H]2C(=O)N[C@@H](CNC[C@@H](O)C(O)[C@H](O[C@@H]2OC(CO)[C@@H](O)C(O)C2O)C(O)CO)C(=O)N[C@@H](CC(C)C)C(=O)N2C[C@H](O)C[C@H]2C(=O)N[C@@H](Cc2c[nH]c3ccccc23)C(=O)N[C@@H](CCNC[C@@H](O)C(O)[C@H](O[C@@H]2OC(CO)[C@@H](O)C(O)C2O)C(O)CO)C(=O)N[C@@H](Cc2cn(CC(=O)O)c3ccccc23)C(=O)N1C (stereo partly drawn) [Example 2040] ({CH2CO}-Y[NMeA]NP[X42]L[Hyp]W[X54][Trp(1-CH2COOH)][NMeNle][NMeNle]LCG-NH2; thioether N-14) | 6.3 |
| CCCC[C@H]1C(=O)N(C)[C@@H](CCCC)C(=O)N[C@@H](CC(C)C)C(=O)N[C@H](C(=O)NCC(N)=O)CSCC(=O)N[C@@H](Cc2ccc(O)cc2)C(=O)N(C)[C@@H](C)C(=O)N[C@@H](CC(N)=O)C(=O)N2CCC[C@H]2C(=O)N[C@@H](CNC[C@H](O)[C@@H](O)[C@H](O)C(O)CO[C@H]2O[C@H](CO)[C@H](O)[C@H](O)[C@H]2O)C(=O)N[C@@H](CC(C)C)C(=O)N2C[C@H](O)C[C@H]2C(=O)N[C@@H](Cc2c[nH]c3ccccc23)C(=O)N[C@@H](CCNC[C@H](O)[C@@H](O)[C@H](O)C(O)CO[C@H]2O[C@H](CO)[C@H](O)[C@H](O)[C@H]2O)C(=O)N[C@@H](Cc2cn(CC(=O)O)c3ccccc23)C(=O)N1C (stereo partly drawn) [Example 2041] ({CH2CO}-Y[NMeA]NP[X39]L[Hyp]W[X53][Trp(1-CH2COOH)][NMeNle][NMeNle]LCG-NH2; thioether N-14) | 7.2 |
| CCCC[C@H]1C(=O)N(C)[C@@H](CCCC)C(=O)N[C@@H](CC(C)C)C(=O)N[C@H](C(=O)NCC(N)=O)CSCC(=O)N[C@@H](Cc2ccc(O)cc2)C(=O)N(C)[C@@H](C)C(=O)N[C@@H](CC(N)=O)C(=O)N2CCC[C@H]2C(=O)N[C@@H](CNC[C@H](O)[C@H](O)[C@@H](O)[C@H](C)O)C(=O)N[C@@H](CC(C)C)C(=O)N2C[C@H](O)C[C@H]2C(=O)N[C@@H](Cc2c[nH]c3ccccc23)C(=O)N[C@@H](CCN)C(=O)N[C@@H](Cc2cn(CC(=O)O)c3ccccc23)C(=O)N1C [Example 2042] ({CH2CO}-Y[NMeA]NP[X52]L[Hyp]W[Dab][Trp(1-CH2COOH)][NMeNle][NMeNle]LCG-NH2; thioether N-14) | 6.7 |
| CCCC[C@H]1C(=O)N(C)[C@@H](CCCC)C(=O)N[C@@H](CC(C)C)C(=O)N[C@H](C(=O)NCC(N)=O)CSCC(=O)N[C@@H](Cc2ccc(O)cc2)C(=O)N(C)[C@@H](C)C(=O)N[C@@H](CC(N)=O)C(=O)N2CCC[C@H]2C(=O)N[C@@H](CNC[C@H](O)[C@H](O)[C@@H](O)[C@H](C)O)C(=O)N[C@@H](CC(C)C)C(=O)N2C[C@H](O)C[C@H]2C(=O)N[C@@H](Cc2c[nH]c3ccccc23)C(=O)N[C@@H](CCNC[C@H](O)[C@H](O)[C@@H](O)[C@H](C)O)C(=O)N[C@@H](Cc2cn(CC(=O)O)c3ccccc23)C(=O)N1C [Example 2044] ({CH2CO}-Y[NMeA]NP[X52]L[Hyp]W[X66][Trp(1-CH2COOH)][NMeNle][NMeNle]LCG-NH2; thioether N-14) | 12 |

Reference: patent US20230242585A1, “IMMUNOMODULATORS” (Bristol-Myers Squibb Company, priority 2020, published 2023)
